Data set [1] addresses T1, recombinant human FAP protein (Homo sapiens, UniProt Q12884).
T1 construct: purchased Sino Biological Inc., Beijing, China 10464-H07H
T1 sequence (Q12884 1-760): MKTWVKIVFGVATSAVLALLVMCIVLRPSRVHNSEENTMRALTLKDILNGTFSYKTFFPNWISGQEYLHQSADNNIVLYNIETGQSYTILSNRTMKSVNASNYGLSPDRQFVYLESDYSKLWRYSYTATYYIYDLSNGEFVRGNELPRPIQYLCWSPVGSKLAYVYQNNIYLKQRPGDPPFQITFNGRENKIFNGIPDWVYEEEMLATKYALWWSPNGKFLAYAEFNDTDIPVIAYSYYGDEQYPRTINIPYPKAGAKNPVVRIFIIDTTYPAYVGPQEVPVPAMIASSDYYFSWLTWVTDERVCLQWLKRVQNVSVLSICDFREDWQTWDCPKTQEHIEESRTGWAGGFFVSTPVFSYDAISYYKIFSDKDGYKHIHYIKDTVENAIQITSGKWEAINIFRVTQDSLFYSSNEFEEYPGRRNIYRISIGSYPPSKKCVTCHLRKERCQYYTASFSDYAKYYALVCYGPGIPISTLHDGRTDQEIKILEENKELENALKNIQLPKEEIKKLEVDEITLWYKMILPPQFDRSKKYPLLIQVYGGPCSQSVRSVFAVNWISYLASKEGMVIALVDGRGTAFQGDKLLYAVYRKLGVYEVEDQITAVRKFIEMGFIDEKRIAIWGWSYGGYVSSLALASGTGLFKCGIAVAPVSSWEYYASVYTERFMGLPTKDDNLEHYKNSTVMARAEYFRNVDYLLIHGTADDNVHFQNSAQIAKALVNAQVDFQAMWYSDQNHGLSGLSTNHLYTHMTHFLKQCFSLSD
In words: Biacore SPR binding affinity measurement. Conditions: read-out: KD (equilibrium dissociation constant). The procedure:
In order to determine the binding kinetics between ligands and human FAP protein (10464-H07H, Sino Biological Inc., Beijing, China), the Biacore SPR interaction study was conducted. The binding affinity is expressed by the equilibrium dissociation constant (KD) (M), which is calculated from the values of the measured binding rate constant (ka) (M^−1 s^−1) and dissociation rate (kd) (s^−1).
Background: Surface plasmon resonance follows binding to a sensor surface in real time, without labels.

A short description of data set [2]: Octanol-water partition coefficient (n-octanol/PBS). Format: physicochemical. Conditions: n-octanol/PBS 1:1, ambient temperature. The procedure: Radiotracers [^68Ga]Ga-DOTA-FAPI-04 and [^18F]AlF-H3RESCA-FAPI (0.37 MBq, about 50 µL) were added to tubes containing n-octanol/PBS mixture (1 mL, 1:1). The mixture was vortexed vigorously for 5 min at ambient temperature and then centrifuged for five min at 8000 rpm. In each phase, three samples (each 50 µL) were removed and measured in γ-counter (PerkinElmer). The partition coefficient was expressed as an equation as follows:(1) LogD7.4=LogCPM(n−octanol)/CPM(PBS)

We go through two compounds from article PMC11859916, “Design, Synthesis, and Biological Evaluation of a Novel [^18F]AlF-H3RESCA-FAPI Radiotracer Targeting Fibroblast Activation Protein” (Pharmaceuticals, 2025).

Molecules are shown by their SMILES.

In general, Kd refers to the equilibrium constant for the complex coming apart. Take `N#C[C@@H]1CC(F)(F)CN1C(=O)CNC(=O)c1ccnc2ccc(OCCCN3CCN(C(=O)Cc4ccc(CN(CC(=O)O)[C@@H]5CCCC[C@H]5N(CC(=O)O)CC(=O)O)cc4)CC3)cc12` [H3RESCA-FAPI, 2,2′-(((1R,2R)-2-((carboxymethyl)(4-(2-(4-(3-((4-((2-((S)-2-cyano-4,4-difluoropyrrolidin-1-yl)-2-oxoethyl)carbamoyl)quinolin-6-yl)oxy)propyl)piperazin-1-yl)-2-oxoethyl)benzyl)amino)cyclohexyl)azanediyl)diacetic acid]: the Kd in data set [1] was less than 0.0101 nM.
Turning to `N#C[C@@H]1CC(F)(F)CN1C(=O)CNC(=O)c1ccnc2ccc(OCCCN3CCN(C(=O)CN4CCN(CC(=O)[O-])CCN(CC(=O)O)CCN(CC(=O)[O-])CC4)CC3)cc12.[68Ga+3]` [[^68Ga]Ga-DOTA-FAPI-04], the “logD7.4 (octanol-water partition coefficient)” value in data set [2] is listed as −3.53 ± 0.05.
